Legend:
MDA-MB-436 = experiment: CTG experiment for cell viability (CellTiter-Glo, 96-well plate, 7 days); assay type: cell-based; conditions: MDA-MB-436 cells, 7 days culture with compound
Protocol: Test Example 2: CTG experiment for cell viability
• 1. Object: to screen USP1 inhibitors by a CTG assay, using a 96-well plate. • 2. Materials: • The cells used were MDA-MB-436 (manufacturer: Nanjing Cobioer Biotechnology Co., Ltd.) and cultured in DMEM medium, • CTG (CellTiter-Glo® Luminescent Cell Viability Assay kit) (Promega, Cat. No.: G7572), • 96-well plate (Corning, Cat. No.: 3610). • 3. Compounds: all compounds were dissolved in 100% DMSO to obtain 50 mM stock solutions. • 4. Experimental method: • ① Plating: The cells to be tested were spread into a 96-well plate at a certain density, with 200 µL per well, and 200 µL of cell medium was added to the blank wells. […] The cell plate with the compounds was placed in an incubator at 37°C, and further cultured for 7 days prior to detection. • ④ Assay: The substrate and the buffer of CTG kit were mixed evenly. The cell plate with the compounds in Step ③ was taken out from the incubator, and left at room temperature to equilibrate for 30 minutes. The medium containing the compounds was removed from the cell plate, 100 µL of PBS and 50 µL of CTG reagent were added to each well, shaken and mixed for 3 minutes, and then incubated for 10 minutes at room temperature. The plate was read by a BIotek microplate-reader, with a parameter set to 567 CPM. • 5. Curve fitting
It was the same as that for the enzyme.

[1] = biological target: T1, Recombinant human His6-USP1/His6-UAF1 complex protein (Homo sapiens, UniProt O94782); experiment: In vitro inhibitory activity against USP1 (Ubiquitin Rhodamine 110 fluorescence detection, 384-well plate); assay type: biochemical; conditions: Ub-Rho substrate, 1 hour pre-incubation, read after 30 minutes
T1 construct: His6; purchased R&D E-568-050
T1 sequence (O94782 whole entry): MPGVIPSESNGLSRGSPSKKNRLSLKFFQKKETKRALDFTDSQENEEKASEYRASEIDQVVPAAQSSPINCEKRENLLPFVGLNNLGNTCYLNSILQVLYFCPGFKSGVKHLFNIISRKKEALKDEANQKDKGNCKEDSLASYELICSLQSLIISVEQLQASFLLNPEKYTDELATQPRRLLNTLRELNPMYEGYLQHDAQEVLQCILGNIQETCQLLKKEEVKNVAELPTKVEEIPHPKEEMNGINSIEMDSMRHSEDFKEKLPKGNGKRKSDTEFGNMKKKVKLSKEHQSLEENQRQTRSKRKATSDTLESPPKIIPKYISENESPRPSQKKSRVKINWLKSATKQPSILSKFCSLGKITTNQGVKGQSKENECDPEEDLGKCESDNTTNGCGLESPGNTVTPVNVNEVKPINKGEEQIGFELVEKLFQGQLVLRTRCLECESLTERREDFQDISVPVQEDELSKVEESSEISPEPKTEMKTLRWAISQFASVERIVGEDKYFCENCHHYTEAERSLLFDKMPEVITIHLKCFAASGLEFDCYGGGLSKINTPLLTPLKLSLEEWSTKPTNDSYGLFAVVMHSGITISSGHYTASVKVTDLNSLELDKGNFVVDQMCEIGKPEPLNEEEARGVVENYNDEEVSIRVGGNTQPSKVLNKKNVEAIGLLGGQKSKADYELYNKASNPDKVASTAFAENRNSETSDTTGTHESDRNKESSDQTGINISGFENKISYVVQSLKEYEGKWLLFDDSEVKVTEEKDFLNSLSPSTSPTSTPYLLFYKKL
T1 sequence (Q8TAF3 whole entry partner): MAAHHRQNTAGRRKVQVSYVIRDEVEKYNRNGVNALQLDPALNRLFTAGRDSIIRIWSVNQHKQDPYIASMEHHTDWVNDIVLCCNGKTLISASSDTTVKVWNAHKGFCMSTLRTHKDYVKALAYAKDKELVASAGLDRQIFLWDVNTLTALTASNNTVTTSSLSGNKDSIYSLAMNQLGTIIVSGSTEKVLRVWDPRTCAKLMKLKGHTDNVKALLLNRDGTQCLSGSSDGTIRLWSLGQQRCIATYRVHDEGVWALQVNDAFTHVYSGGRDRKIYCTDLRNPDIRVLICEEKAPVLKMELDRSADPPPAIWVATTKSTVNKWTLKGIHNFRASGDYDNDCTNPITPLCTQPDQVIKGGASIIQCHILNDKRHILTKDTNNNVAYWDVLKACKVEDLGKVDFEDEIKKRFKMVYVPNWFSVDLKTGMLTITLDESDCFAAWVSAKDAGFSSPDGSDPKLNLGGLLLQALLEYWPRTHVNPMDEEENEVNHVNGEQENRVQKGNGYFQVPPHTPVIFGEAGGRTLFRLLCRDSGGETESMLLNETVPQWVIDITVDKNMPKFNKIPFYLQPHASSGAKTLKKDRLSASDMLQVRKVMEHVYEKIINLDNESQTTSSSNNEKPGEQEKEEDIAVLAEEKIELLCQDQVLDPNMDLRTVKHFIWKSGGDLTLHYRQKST
Protocol: Test Example 1: In vitro inhibitory activity against USP1 […]
Experimental object: to screen compounds with inhibitory activity against USP1 […] by a fluorescence detection method, using a 384-well plate.
Experimental materials: Recombinant human His6-USP1/His6-UAF1 complex protein (R&D, Cat. No.: E-568-050), Ubiquitin Rhodamine 110 protein (Ub-Rho) (R&D, Cat. No.: U-555-050), 384-well plate (Perkin Elmer, Cat. No.: 6007279); all compounds were dissolved in 100% DMSO to obtain 50 mM stock solutions.
• 1) Preparation of 1 × assay buffer: 1 × assay buffer (modified Tris buffer) was prepared; • 2) Dilution of compounds: the compounds were transferred to an assay plate via Echo.

[2] = Homo sapiens, MDA-MB-436, 168 h

Row | IC50 (MDA-MB-436; [2]) [nM] | IC50 [1] [nM] | IC50 (MDA-MB-436) [nM] | SMILES
1 | 235 | 106 | – | COc1cnc(-c2c(C)ncnc2OC2CC2)nc1N(C)C[C@H]1CC[C@H](c2nc(C(F)(F)F)cn2C)CC1 [Example S32]
2 | 3.5 | 1.2 | – | COc1cnc(-c2cccnc2C(C)C)nc1NCC12C3C4C1C1C2C3C41c1nc(C(F)(F)F)cn1C (stereo not drawn) [Example S42, 2-(2-isopropylpyridin-3-yl)-5-methoxy-N-((4-(1-methyl-4-(trifluoromethyl)-1H-imidazol-2-yl)cuban-1-yl)methyl)pyrimidin-4-amine]
3 | 25.4 | 3.4 | – | COc1cnc(-c2cccnc2C2CC2)nc1NCc1ccc(-c2nc(C(F)(F)F)cn2C)cc1 [Example 153, 2-(2-Cyclopropylpyridin-3-yl)-5-methoxy-N-(4-(1-methyl-4-(trifluoromethyl)-1H-imidazol-2-yl)benzyl)pyrimidin-4-amine]
4 | 0.7 | 3.1 | – | COc1cnc(-c2c(OC)ncnc2C2CC2(F)F)nc1N(C)CC1CCC(c2nc(C(F)(F)F)cn2C)CC1 [Example S49, 4'-(2,2-difluorocyclopropyl)-5,6'-dimethoxy-N-methyl-N-((1R,4R)-4-(1-methyl-4-(trifluoromethyl)-1H-imidazol-2-yl)cyclohexyl)methyl)-[2,5'-bipyrimidin]-4-amine]
5 | 55.8 | 33 | – | COc1cnc(-c2c(OC)ncnc2C2CC2)nc1NCC12CCC(c3ccc(C(F)(F)F)cn3)(CC1)CC2 [Example 28]
6 | 17.5 | 16 | – | COc1cnc(-c2c(OC)ncnc2C2CC2)nc1NCc1ccc(-c2nc(C(F)(F)F)cn2CF)cc1 [Example 107, 4'-Cyclopropyl-N-(4-(1-(fluoromethyl)-4-(trifluoromethyl)-1H-imidazol-2-yl)benzyl)-5,6'-dimethoxy-[2,5'-bipyrimidin]-4-amine]
7 | 169 | 20 | – | COc1ncnc(C2CC2)c1-c1nc(NCc2ccc(-c3nc(C(F)F)cn3C)cc2)c2occc2n1 [Example 123, 2-(4-Cyclopropyl-6-methoxypyrimidin-5-yl)-N-(4-(4-(difluoromethyl)-1-methyl-1H-imidazol-2-yl)benzyl)furo[3,2-d]pyrimidin-4-amine]
8 | 307 | 16 | – | Cc1noc(C(C)C)c1-c1nc(NCc2ccc(-c3ccccn3)cc2)c2occc2n1 [Example 189, 2-(5-Isopropyl-3-methylisoxazol-4-yl)-N-(4-(pyridin-2-yl)benzyl)furo[3,2-d]pyrimidin-4-amine]
9 | 23.3 | 2.9 | – | COc1cnc(-c2cccnc2C(C)C)nc1NCc1ccc(-c2nc(C(F)(F)F)cn2C)cc1 [Example 157, 2-(2-Isopropylpyridin-3-yl)-5-methoxy-N-(4-(1-methyl-4-(trifluoromethyl)-1H-imidazol-2-yl)benzyl)pyrimidin-4-amine]
10 | 533 | 91.5 | – | COc1ncnc(C2CC2)c1-c1ncc2c(n1)N(CC1CCN(c3nc(C(F)(F)F)cn3C)CC1)CCO2 [Example 20, 2-(4-Cyclopropyl-6-methoxypyrimidin-5-yl)-8-((1-(1-methyl-4-(trifluoromethyl)-1H-imidazol-2-yl)piperidin-4-yl)methyl)-7,8-dihydro-6H-pyrimido[5,4-b][1,4] oxazine]
11 | 28.7 | 5.6 | – | COc1cnc(-c2c(C)cnn2C2CC2)nc1NCc1ccc(-c2nc(C(F)(F)F)cn2C)cc1 [Example 199, 2-(1-Cyclopropyl-4-methyl-1H-pyrazol-5-yl)-5-methoxy-N-(4-(1-methyl-4-(trifluoromethyl)-1H-imidazol-2-yl)benzyl)pyrimidin-4-amine]
12 | 0.022 | 5.2 | – | COc1ncnc(C2CC2)c1-c1nc(NCc2ccc(-n3nc(C(F)(F)F)cc3C)cc2)c2occc2n1 [Example 50, 2-(4-Cyclopropyl-6-methoxypyrimidin-5-yl)-N-(4-(5-methyl-3-(trifluoromethyl)-1H-pyrazol-1-yl)benzyl)furo[3,2-d]pyrimidin-4-amine]
13 | 278 | 13.8 | – | CCOCCOc1ccc(CNc2nc(-c3c(OC)ncnc3C3CC3)nc3ccoc23)cc1 [Example 117, 2-(4-Cyclopropyl-6-methoxypyrimidin-5-yl)-N-(4-(2-ethoxyethoxy)benzyl)furo[3,2-d]pyrimidin-4-amine]
14 | 2.3 | 4.9 | – | [2H]C([2H])([2H])N(CC12CCC(c3nc(C(F)(F)F)cn3C)(CC1)CC2)c1nc(-c2c(OC)ncnc2C2CC2)ncc1OC [Example S4, 4'-Cyclopropyl-5,6'-dimethoxy-N-(methyl-d3)-N-((4-(1-methyl-4-(trifluoromethyl)-1H-imidazol-2-yl)bicyclo[2.2.2]oct-1-yl)methyl)-[2,5'-bipyrimidin]-4-amine]
15 | 103 | 3.9 | – | CC(C)c1ccccc1-c1ncc(C(F)(F)F)c(NCc2ccc(-c3nc(C(F)(F)F)cn3C)cc2)n1 [Example 17, 2-(2-Isopropylphenyl)-N-(4-(1-methyl-4-(trifluoromethyl)-1H-imidazol-2-yl)benzyl)-5-(trifluoromethyl)pyrimidin-4-amine]
16 | 445 | 15.1 | – | CCOCCOc1ccc(CNc2nc(-c3c(OC)ncnc3C3CC3)ncc2OC)cc1 [Example 99, 4'-Cyclopropyl-N-(4-(2-ethoxyethoxy)benzyl)-5,6'-dimethoxy-[2,5'-bipyrimidin]-4-amine]
17 | 2.7 | 1.4 | – | COc1cnc(-c2c(OC)ncnc2C2CC2)nc1NCC12C3C4C1C1C2C3C41c1nc(C(F)(F)F)cn1C1CC1 (stereo not drawn) [Example 216, 4'-cyclopropyl-N-((4-(1-cyclopropyl-4-(trifluoromethyl)-1H-imidazol-2-yl)cuban-1-yl)methyl)-5,6'-dimethoxy-[2,5'-bipyrimidin]-4-amine]
18 | 0.9 | 4.6 | – | COc1cnc(-c2c(OC)ncnc2C2CC2)nc1NCc1ccc(-n2nc(C(F)(F)F)cc2C)cc1 [Example 26, 4'-Cyclopropyl-5,6'-dimethoxy-N-(4-(5-methyl-3-(trifluoromethyl)-1H-pyrazol-1-yl)benzyl)-[2,5'-bipyrimidin]-4-amine]
19 | 27.8 | 4.1 | – | COc1cc(-c2nc(C(F)(F)F)cn2C)ccc1CNc1nc(-c2c(OC)ncnc2C2CC2)ncc1OC [Example 100, 4'-Cyclopropyl-5,6'-dimethoxy-N-(2-methoxy-4-(1-methyl-4-(trifluoromethyl)-1H-imidazol-2-yl)benzyl)-[2,5'-bipyrimidin]-4-amine]
20 | 2.4 | 2.1 | – | COc1cnc(-c2ccccc2C(C)C)nc1NCC1CCN(c2nc(C(F)(F)F)cn2C)CC1 [Example 65, 2-(2-Isopropylphenyl)-5-methoxy-N-((1-(1-methyl-4-(trifluoromethyl)-1H-imidazol-2-yl)piperidin-4-yl)methyl)pyrimidin-4-amine]
21 | 50.5 | 8.9 | – | COc1cc(CNc2nc(-c3c(OC)ncnc3C3CC3)nc3ccoc23)ccc1-c1nc(C(F)(F)F)cn1C [Example 120, 2-(4-Cyclopropyl-6-methoxypyrimidin-5-yl)-N-(3-methoxy-4-(1-methyl-4-(trifluoromethyl)-1H-imidazol-2-yl)benzyl)furo[3,2-d]pyrimidin-4-amine]
22 | 123 | 15 | – | COc1cnc(-c2c(OC)cnn2C(C)C)nc1NCc1ccc(-c2nc(C(F)(F)F)cn2C)cc1 [Example 180, 2-(1-Isopropyl-4-methoxy-1H-pyrazol-5-yl)-5-methoxy-N-(4-(1-methyl-4-(trifluoromethyl)-1H-imidazol-2-yl)benzyl)pyrimidin-4-amine]
23 | 31.6 | 1.6 | – | COc1cnc(-c2c(Cl)cnn2C(C)C)nc1NCC12CCC(c3nc(C(F)(F)F)cn3C)(CC1)OC2 [Example 209, 2-(4-chloro-1-isopropyl-1H-pyrazol-5-yl)-5-methoxy-N-((1-(1-methyl-4-(trifluoromethyl)-1H-imidazol-2-yl)-2-oxabicyclo[2.2.2]octan-4-yl)methyl)pyrimidin-4-amine]
24 | – | – | 24.4 | COc1cnc(-c2c(OC)ncnc2C2CC2)nc1NCC1CCC(c2nc(C(F)(F)F)cn2C(C)C)CC1 [Example S25, 4'-Cyclopropyl-N-((1R,4R)-4-(1-isopropyl-4-(trifluoromethyl)-1H-imidazol-2-yl)cyclohexyl)methyl)-5,6'-dimethoxy-[2,5'-bipyrimidin]-4-amine]
25 | 1.8 | – | – | COc1ncnc(C2CC2)c1-c1ncc2c(n1)N(Cc1ccc(-c3nc(C(F)(F)F)cn3C)cc1)CCO2 [Example 21, 2-(4-Cyclopropyl-6-methoxypyrimidin-5-yl)-8-(4-(1-methyl-4-(trifluoromethyl)-1H-imidazol-2-yl)benzyl)-7,8-dihydro-6H-pyrimido[5,4-b][1,4]oxazine]
